In the supplement of paper PMC4862054:

What was measured:
Conditions in all cases: incubation time: 72 h
BT-474 = assay: normalised response (% of control), CellTiter-Glo; higher = more viable cells (100 = DMSO, 0 = benzethonium chloride kill control)
In short: (§1)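 In 384-well plates holding compound at 5 concentrations in 10-fold steps over a 10,000-fold range specific to each compound, breast cancer cell lines were seeded as 20 µl suspension and incubated 72 h. CellTox Green fluorescence was measured at 485/520 nm, after which CellTiter-Glo luminescence was measured following 10 min at room temperature. Plate signals were normalised to 0.1 % DMSO (100) and a positive kill control (0), and each value is the normalised signal at a single concentration.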

HDQ-P1 = assay: as above
In short: as §1

MCF-10A = assay: as above
In short: as §1

MDA-MB-231 = assay: as above
In short: as §1

MDA-MB-436 = assay: as above
In short: as §1

CAL-120 = assay: as above
In short: as §1

HCC1143 = assay: as above
In short: as §1

MFM-223 = assay: as above
In short: as §1

BT-549 = assay: as above
In short: as §1

CAL-51 = assay: as above
In short: as §1

SK-BR-3 = assay: as above
In short: as §1

CAL-148 [1] = assay: as above
In short: as §1

Hs578T = assay: as above
In short: as §1

HCC1937 = assay: as above
In short: as §1

CAL-85-1 = assay: as above
In short: as §1

MDA-MB-468 = assay: as above
In short: as §1

HCC1599 [2] = assay: as above
In short: as §1

MDA-MB-453 = assay: as above
In short: as §1

CAL-148 [3] = assay: normalised response (% of control), CellTox Green; higher = less cell death (100 = DMSO, 0 = benzethonium chloride kill control)
In short: as §1

HCC1599 [4] = assay: as above
In short: as §1

## Cc1c(N)nc([C@H](CC(N)=O)NC[C@H](N)C(N)=O)nc1C(=O)N[C@H](C(=O)N[C@H](C)[C@@H](O)[C@H](C)C(=O)N[C@H](C(=O)NCCc1nc(-c2nc(C(=O)NCCC[S+](C)C)cs2)cs1)[C@@H](C)O)[C@@H](OC1OC(CO)C(O)C(O)C1OC1OC(CO)C(O)C(OC(N)=O)C1O)c1cnc[nH]1 (stereo partly drawn) [Bleomycin] (1000 nM)
BT-474
  normalised response: 91.3%
HDQ-P1
  normalised response: 103%
MCF-10A
  normalised response: 96%
MDA-MB-231
  normalised response: 88.3%
MDA-MB-436
  normalised response: 82.3%
CAL-120
  normalised response: 91.9%
HCC1143
  normalised response: 83.1%
MFM-223
  normalised response: 99.6%
BT-549
  normalised response: 66.7%
CAL-51
  normalised response: 49%
SK-BR-3
  normalised response: 84.8%
CAL-148 [1]
  normalised response: 82.1%
Hs578T
  normalised response: 86.5%
HCC1937
  normalised response: 94.2%
CAL-85-1
  normalised response: 91.9%
MDA-MB-468
  normalised response: 86.1%
HCC1599 [2]
  normalised response: 105%
MDA-MB-453
  normalised response: 91%
CAL-148 [3]
  normalised response: 58.4%
HCC1599 [4]
  normalised response: 94.8%

## Cc1c(N)nc([C@H](CC(N)=O)NC[C@H](N)C(N)=O)nc1C(=O)N[C@H](C(=O)N[C@H](C)[C@@H](O)[C@H](C)C(=O)N[C@H](C(=O)NCCc1nc(-c2nc(C(=O)NCCC[S+](C)C)cs2)cs1)[C@@H](C)O)[C@@H](OC1OC(CO)C(O)C(O)C1OC1OC(CO)C(O)C(OC(N)=O)C1O)c1cnc[nH]1 (stereo partly drawn) [Bleomycin] (10000 nM)
CAL-148 [3]
  normalised response: 47.9%
HCC1599 [4]
  normalised response: 84%

## Cc1cc2c(F)c(Oc3ncnn4cc(OC[C@@H](C)O)c(C)c34)ccc2[nH]1 [Brivanib] (100 nM)
BT-474
  normalised response: 107%
HDQ-P1
  normalised response: 104%
MCF-10A
  normalised response: 111%
MDA-MB-231
  normalised response: 107%
MDA-MB-436
  normalised response: 110%
CAL-120
  normalised response: 109%
HCC1143
  normalised response: 107%
MFM-223
  normalised response: 107%
BT-549
  normalised response: 94%
CAL-51
  normalised response: 80.6%
SK-BR-3
  normalised response: 103%
CAL-148 [1]
  normalised response: 105%
Hs578T
  normalised response: 98.8%
HCC1937
  normalised response: 97.4%
CAL-85-1
  normalised response: 97.1%
MDA-MB-468
  normalised response: 108%
HCC1599 [2]
  normalised response: 126%
MDA-MB-453
  normalised response: 97%
CAL-148 [3]
  normalised response: 104%
HCC1599 [4]
  normalised response: 99.8%

## Cc1cc2c(F)c(Oc3ncnn4cc(OC[C@@H](C)O)c(C)c34)ccc2[nH]1 [Brivanib] (1000 nM)
CAL-148 [3]
  normalised response: 99.3%
HCC1599 [4]
  normalised response: 80.2%

## CCCCCOC(=O)Nc1nc(=O)n([C@@H]2O[C@H](C)[C@@H](O)[C@H]2O)cc1F [Capecitabine] (1000 nM)
BT-474
  normalised response: 103%
HDQ-P1
  normalised response: 96.2%
MCF-10A
  normalised response: 97%
MDA-MB-231
  normalised response: 98.2%
MDA-MB-436
  normalised response: 98.7%
CAL-120
  normalised response: 107%
HCC1143
  normalised response: 103%
MFM-223
  normalised response: 102%
BT-549
  normalised response: 104%
CAL-51
  normalised response: 112%
SK-BR-3
  normalised response: 105%
CAL-148 [1]
  normalised response: 98.6%
Hs578T
  normalised response: 107%
HCC1937
  normalised response: 94%
CAL-85-1
  normalised response: 92.2%
MDA-MB-468
  normalised response: 101%
HCC1599 [2]
  normalised response: 104%
MDA-MB-453
  normalised response: 111%
CAL-148 [3]
  normalised response: 76.8%
HCC1599 [4]
  normalised response: 96.3%

## CCCCCOC(=O)Nc1nc(=O)n([C@@H]2O[C@H](C)[C@@H](O)[C@H]2O)cc1F [Capecitabine] (10000 nM)
CAL-148 [3]
  normalised response: 99.5%
HCC1599 [4]
  normalised response: 102%

## CC(C)C[C@H](NC(=O)[C@H](CCc1ccccc1)NC(=O)CN1CCOCC1)C(=O)N[C@@H](Cc1ccccc1)C(=O)N[C@@H](CC(C)C)C(=O)[C@@]1(C)CO1 [Carfilzomib] (100 nM)
BT-474
  normalised response: 0.61%
HDQ-P1
  normalised response: 0.29%
MCF-10A
  normalised response: 43.6%
MDA-MB-231
  normalised response: 0.22%
MDA-MB-436
  normalised response: 1.46%
CAL-120
  normalised response: 2.73%
HCC1143
  normalised response: 8.24%
MFM-223
  normalised response: 4.43%
BT-549
  normalised response: 1.4%
CAL-51
  normalised response: 2.57%
SK-BR-3
  normalised response: 3.27%
CAL-148 [1]
  normalised response: 0.66%
Hs578T
  normalised response: 0.88%
HCC1937
  normalised response: 4.85%
CAL-85-1
  normalised response: 0.78%
MDA-MB-468
  normalised response: 0.79%
HCC1599 [2]
  normalised response: 52%
MDA-MB-453
  normalised response: 12.2%
CAL-148 [3]
  normalised response: 14.6%
HCC1599 [4]
  normalised response: 97.3%

## CC(C)C[C@H](NC(=O)[C@H](CCc1ccccc1)NC(=O)CN1CCOCC1)C(=O)N[C@@H](Cc1ccccc1)C(=O)N[C@@H](CC(C)C)C(=O)[C@@]1(C)CO1 [Carfilzomib] (1000 nM)
CAL-148 [3]
  normalised response: 12.2%
HCC1599 [4]
  normalised response: 99.5%
